Measured values reported in patent US10076116B2, “N-cycloalkyl-N-(biheterocyclymethylene)-(thio)carboxamide derivatives” (BAYER CROPSCIENCE AKTIENGESELLSCHAFT, priority 2013, dated 2018).

Key:
Pyrenophora teres = experiment: In vivo preventive test on Pyrenophora teres (net blotch on barley); conditions: for efficacy: 500 ppm of active ingredient, barley plants, evaluated 14 days after inoculation; for Efficacy (Table D1): dose 500 ppm, barley
Description: Example D: In Vivo Preventive Test on Pvrenophora Teres (Net Blotch on Barley) Solvent: 5% by volume of Dimethyl sulfoxide • 10% by volume of Acetone Emulsifier: 1 μL of TWEEN® 80 per mg of active ingredient The active ingredients are made soluble and homogenized in a mixture of Dimethyl sulfoxide/Acetone/TWEEN® 80 and then diluted in water to the desired concentration. The young plants of barley are treated by spraying the active ingredient prepared as described above. Control plants are treated only with an aqueous solution of Acetone/Dimethyl sulfoxide/TWEEN® 80. After 24 hours, the plants are contaminated by spraying the leaves with an aqueous suspension of Pyrenophora teres spores. The contaminated barley plants are incubated for 48 hours at 20° C. and at 100% relative humidity and then for 12 days at 20° C. and at 70-80% relative humidity. The test is evaluated 14 days after the inoculation. 0% means an efficacy which corresponds to that of the control plants while an efficacy of 100% means that no disease is observed.

Alternaria brassicae = experiment: In vivo preventive test on Alternaria brassicae (leaf spot on radish); conditions: for Efficacy (Table A2) / Efficacy (Table A1): dose 500 ppm, radish, 6 days after inoculation; for efficacy: 500 ppm of active ingredient, radish plants sprayed 24 hours before inoculation, evaluated 6 days after inoculation
Description: Example A: In Vivo Preventive Test on Alternaria brassicae (Leaf Spot on Radish) Solvent: 5% by volume of Dimethyl sulfoxide • 10% by volume of Acetone Emulsifier: 1 μL of TWEEN® 80 (Polyoxyethylene (20) sorbitan monooleate) per mg of active ingredient The active ingredients are made soluble and homogenized in a mixture of Dimethyl sulfoxide/Acetone/TWEEN® 80 and then diluted in water to the desired concentration. The young plants of radish are treated by spraying the active ingredient prepared as described above. Control plants are treated only with an aqueous solution of Acetone/Dimethyl sulfoxide/TWEEN® 80. After 24 hours, the plants are contaminated by spraying the leaves with an aqueous suspension of Alternaria brassicae spores. The contaminated radish plants are incubated for 6 days at 20° C. and at 100% relative humidity. The test is evaluated 6 days after the inoculation. 0% means an efficacy which corresponds to that of the control plants while an efficacy of 100% means that no disease is observed.

[1] = log P by HPLC on reversed-phase column (C 18), EEC Directive 79/831 Annex V.A8; assay type: physicochemical; conditions: HPLC C 18, 40° C., 0.1% aqueous formic acid and acetonitrile, gradient 10% to 90% acetonitrile
Description: In table 1, the log P values were determined in accordance with EEC Directive 79/831 Annex V.A8 by HPLC (High Performance Liquid Chromatography) on a reversed-phase column (C 18), using the method described below: Temperature: 40° C.; Mobile phases: 0.1% aqueous formic acid and acetonitrile; linear gradient from 10% acetonitrile to 90% acetonitrile. Calibration was carried out using unbranched alkan-2-ones (comprising 3 to 16 carbon atoms) with known log P values (determination of the log P values by the retention times using linear interpolation between two successive alkanones). lambda-max-values were determined using UV-spectra from 200 nm to 400 nm and the peak values of the chromatographic signals.

SMILES | Efficacy (Table D1) (Pyrenophora teres) [%] | Efficacy (Table A2) (Alternaria brassicae) [%] | Efficacy (Table A1) (Alternaria brassicae) [%] | further results
COc1cccc(-c2c(CN(C(=O)c3c(C(F)F)nn(C)c3F)C3CC3)sc3ccccc23)n1 [CMP5, N-cyclopropyl-3-(difluoromethyl)-5-fluoro-N-{[3-(6-methoxypyridin-2-yl)-1-benzothiophen-2-yl]methyl}-1-methyl-1H-pyrazole-4-carboxamide] | 0 | 0 | – | efficacy (Pyrenophora teres): no protection
Cn1nc(C(F)F)c(C(=O)N(Cc2nn(-c3ccccc3)cc2-c2csc3ccccc23)C2CC2)c1F [I.03] | – | – | 93 | logP [1]: 4.53
Cn1nc(C(F)F)c(C(=O)N(Cc2sc3ccccc3c2-c2ccncc2)C2CC2)c1F [CMP6, N-cyclopropyl-3-(difluoromethyl)-5-fluoro-1-methyl-N-{[3-(pyridin-4-yl)-1-benzothiophen-2-yl]methyl}-1H-pyrazole-4-carboxamide] | 0 | – | – | efficacy (Pyrenophora teres): no protection
Cn1nc(C(F)F)c(C(=O)N(Cc2nn(-c3ccccc3)cc2-c2ccc3c(ccn3C)c2)C2CC2)c1F [I.01] | – | – | 71 | logP [1]: 4.16
Cn1nc(C(F)F)c(C(=O)N(Cc2sc3ccccc3c2-c2cccnc2)C2CC2)c1F [CMP4, N-cyclopropyl-3-(difluoromethyl)-5-fluoro-1-methyl-N-{[3-(pyridin-3-yl)-1-benzothiophen-2-yl]methyl}-1H-pyrazole-4-carboxamide, reference compound] | – | 43 | – | –
Cn1nc(C(F)F)c(C(=O)N(Cc2nn(-c3ccccc3)cc2-c2cccnc2)C2CC2)c1F [CMP1, N-cyclopropyl-3-(difluoromethyl)-5-fluoro-1-methyl-N-{[1-phenyl-4-(pyridin-3-yl)-1H-pyrazol-3-yl]methyl}-1H-pyrazole-4-carboxamide, reference compound] | – | – | 0 | efficacy (Alternaria brassicae): no protection
Cn1nc(C(F)F)c(C(=O)N(Cc2sc3ccccc3c2-c2coc3ccccc23)C2CC2)c1F [I.53, N-{[3-(1-benzofuran-3-yl)-1-benzothiophen-2-yl]methyl}-N-cyclopropyl-3-(difluoromethyl)-5-fluoro-1-methyl-1H-pyrazole-4-carboxamide] | 83 | 100 | – | efficacy (Alternaria brassicae; listed as 1.53): total protection; chromatographic logP ([1]; reversed-phase HPLC column (C 18)): 4.61
